# Reference: ChEMBL document CHEMBL3877242, “Synthesis of novel 25-hydroxyprotopanaxadiol derivatives by methylation and methoxycarbonylation using dimethyl carbonate as a environment-friendly reagent and their anti-tumor evaluation” (Bioorg Med Chem Lett, 2016)
# Columns and labels:
# [1] = Cytotoxicity against human HeLa cells assessed as reduction in cell viability after 48 hrs by MTT assay; assay type: functional, cell-based
# [2] = Cytotoxicity against human IOSE-144 cells assessed as reduction in cell viability after 48 hrs by MTT assay; assay type: toxicity, cell-based
# [3] = system: DU-145; assay: (§1) Cytotoxicity against human DU145 cells assessed as reduction in cell viability after 48 hrs by MTT assay; assay type: functional, cell-based
# [4] = as §1; assay type: functional, cell-based; settings: DU-145, 48 h
# [5] = Cytotoxicity against human DU145 cells assessed as viable cells at 30 uM after 48 hrs by MTT assay; assay type: functional; settings: DU-145, 48 h, read-out: GI
# [6] = Cytotoxicity against human HeLa cells assessed as cell growth inhibition at 30 uM after 48 hrs by MTT assay; assay type: functional; settings: read-out: GI
# [7] = system: DU-145; assay: Potency index, ratio of 5-FU IC50 to compound IC50 for human DU145 cells; assay type: functional
SMILES,IC50 [1],IC50 at 48 h [2],growth inhibition (GI) [3],IC50 [4],inhibition of growth at 30 µM [5],inhibition of growth at 30 µM [6],Ratio IC50 [7]
COC(C)(C)CC/C=C(\C)[C@H]1CC[C@]2(C)[C@@H]1[C@H](O)C[C@@H]1[C@@]3(C)CC[C@H](O)C(C)(C)[C@@H]3CC[C@]12C,1.3 µM,> 100 µM,Dose-dependent effect,3.2 µM,20.4%,20.4%,
CO[C@](C)(CCC=C(C)C)[C@H]1CC[C@]2(C)[C@@H]1[C@H](O)C[C@@H]1[C@@]3(C)CC[C@H](O)C(C)(C)[C@@H]3CC[C@]12C,1.1 µM,> 100 µM,Dose-dependent effect,2.6 µM,20.6%,20.6%,20 - 22
COC(=O)O[C@H]1CC[C@]2(C)[C@H]3C[C@@H](O)[C@@H]4[C@@H]([C@](C)(O)CCCC(C)(C)OC(=O)OC)CC[C@@]4(C)[C@]3(C)CC[C@H]2C1(C)C,34.6 µM,> 100 µM,Dose-dependent effect,29.2 µM,,,
CO[C@H]1CC[C@]2(C)[C@H]3C[C@@H](OC)[C@@H]4[C@@H]([C@@](C)(CCCC(C)(C)OC)OC)CC[C@@]4(C)[C@]3(C)CC[C@H]2C1(C)C,21.8 µM,> 100 µM,Dose-dependent effect,18.7 µM,,,
COC(=O)O[C@H]1CC[C@]2(C)[C@H]3C[C@@H](O)[C@@H]4[C@@H](/C(C)=C/CCC(C)(C)O)CC[C@@]4(C)[C@]3(C)CC[C@H]2C1(C)C,15.9 µM,> 100 µM,Dose-dependent effect,10.9 µM,19.7%,19.7%,
COC(=O)O[C@H]1CC[C@]2(C)[C@H]3C[C@@H](OC(=O)OC)[C@@H]4[C@@H](/C(C)=C/CCC(C)(C)OC(=O)OC)CC[C@@]4(C)[C@]3(C)CC[C@H]2C1(C)C,> 100 µM,> 100 µM,Dose-dependent effect,80.3 µM,,,
COC(=O)O[C@H]1CC[C@]2(C)[C@H]3C[C@@H](O)[C@@H]4[C@@H]([C@@](C)(CCCC(C)(C)O)OC)CC[C@@]4(C)[C@]3(C)CC[C@H]2C1(C)C,7.1 µM,> 100 µM,Dose-dependent effect,3.9 µM,18.6%,18.6%,
O=c1[nH]cc(F)c(=O)[nH]1 [FLUOROURACIL],28.2 µM,36.1 µM,,26.1 µM,,,
COC(=O)O[C@H]1CC[C@]2(C)[C@H]3C[C@@H](O)[C@@H]4[C@@H]([C@](C)(O)CCC=C(C)C)CC[C@@]4(C)[C@]3(C)CC[C@H]2C1(C)C,10.4 µM,> 100 µM,Dose-dependent effect,1.2 µM,38.4%,38.4%,20 - 22
CO[C@H]1CC[C@]2(C)[C@H]3C[C@@H](O)[C@@H]4[C@@H]([C@@](C)(CCCC(C)(C)O)OC)CC[C@@]4(C)[C@]3(C)CC[C@H]2C1(C)C,6.7 µM,> 100 µM,Dose-dependent effect,5.6 µM,32.5%,32.5%,
COC(=O)O[C@H]1CC[C@]2(C)[C@H]3C[C@@H](O)[C@@H]4[C@@H]([C@@](C)(CCC=C(C)C)OC)CC[C@@]4(C)[C@]3(C)CC[C@H]2C1(C)C,30.2 µM,> 100 µM,Dose-dependent effect,41.1 µM,,,
COC(=O)O[C@H]1CC[C@]2(C)[C@H]3C[C@@H](O)[C@@H]4[C@@H]([C@@](C)(CCCC(C)(C)OC(=O)OC)OC)CC[C@@]4(C)[C@]3(C)CC[C@H]2C1(C)C,38.2 µM,> 100 µM,Dose-dependent effect,32.6 µM,,,
CO[C@H]1CC[C@]2(C)[C@H]3C[C@@H](OC)[C@@H]4[C@@H](/C(C)=C/CCC(C)(C)O)CC[C@@]4(C)[C@]3(C)CC[C@H]2C1(C)C,1.2 µM,> 100 µM,Dose-dependent effect,12.1 µM,,,
COC(=O)O[C@H]1CC[C@]2(C)[C@H]3C[C@@H](O)[C@@H]4[C@@H]([C@](C)(O)CCCC(C)(C)O)CC[C@@]4(C)[C@]3(C)CC[C@H]2C1(C)C,59.9 µM,> 100 µM,Dose-dependent effect,87.1 µM,,,
CC(C)(O)CCC[C@@](C)(O)[C@H]1CC[C@]2(C)[C@@H]1[C@H](O)C[C@@H]1[C@@]3(C)CC[C@H](O)C(C)(C)[C@@H]3CC[C@]12C,46.4 µM,> 100 µM,,57.9 µM,,,
COC(C)(C)CCC[C@@](C)(O)[C@H]1CC[C@]2(C)[C@@H]1[C@H](O)C[C@@H]1[C@@]3(C)CC[C@H](O)C(C)(C)[C@@H]3CC[C@]12C,22.5 µM,> 100 µM,,5.4 µM,,,
COC(=O)OC(C)(C)CCC[C@@](C)(O)[C@H]1CC[C@]2(C)[C@@H]1[C@H](O)C[C@@H]1[C@@]3(C)CC[C@H](O)C(C)(C)[C@@H]3CC[C@]12C,26.9 µM,> 100 µM,Dose-dependent effect,27.2 µM,,,
